Data as given in patent US20120156333A1, “STABILIZED BETA CRYPTOXANTHIN-CONTAINING WATER AND THE USE THEREOF” (ARKRAY, INC., priority 2010, published 2012).

Key:
Format in all cases: physicochemical
[1] = β cryptoxanthin stabilizing test, Example 3B (water from concentrated liquid, varied β cryptoxanthin concentration, stored at 45° C.)
Description: (§1) The prepared concentrated liquid derived from Citrus unshiu and water were mixed. Thus, β cryptoxanthin-containing waters were prepared. In the mixing, concentrations of the β cryptoxanthin were set to predetermined parts by mass with respect to 100 parts by mass of a combination of the water and components contained in the water. The predetermined parts by mass were 0.0007, 0.0015, 0.0025, 0.0053, and 0.0072 parts by mass. Thus, five types of β cryptoxanthin-containing waters each having a different concentration of the β cryptoxanthin were prepared. Each of the β cryptoxanthin-containing waters was sufficiently stirred. Thereafter 90 g of the resultant β cryptoxanthin-containing water was filled in an aluminum pouch, which was then sterilized under the condition at 85° C. for 30 minutes.
Five types of the β cryptoxanthin-containing waters of the example were stored at 45° C. for one month. Sampling was conducted on a storage start date and after one month from the storage start date. The respective amounts of β cryptoxanthin in samples were measured by HPLC in the same manner as in Example 1B. Then, assuming that the amount of β cryptoxanthin on the storage start date was 100%, residual ratios of β cryptoxanthin were determined.

[2] = Storage stability at 20° C. and 25° C. calculated by Arrhenius equation, Example 4A; conditions: for possible storage period in the stable state: β cryptoxanthin-containing waters of Example 1A, 2A, and 3A, from storage at 40° C. for 2 months
Description: With respect to each of the β cryptoxanthin-containing waters prepared in Examples 1A, 2A, and 3A, storage stability at 20° C. and 25° C. was determined.
The storage stability was calculated by the following method with reference to the publication below. Conditions were described in the publication, hereby incorporated herein by reference. • Sumie Yoshioka (1995), “Iyakuhin no Anzensei—yoriyoi Kaihatsu to Hyoka notameno Kiso kara Jissai made—(Drug safety—principles and practices for improving development and evaluation—), Nankodo Co., Ltd.
Specifically, a graph of FIG. 185 on page 95 of the publication was cited. FIG. 1 is an Arrhenius plot of degradation of thiamine hydrochloride in a vitamin complex liquid agent, the Y axis indicates log Kobs (day^−1), and the X axis indicates 1/T (K^1). The stable periods were calculated based on the activation energy for degradation of thiamine hydrochloride in the vitamin complex liquid agent, shown in the graph.
In FIG. 1, the Y axis is indicated by not ln, but log. Therefore log Kobs was converted into ln k.
Then, −Ea/R and ln A were calculated from the ln k and 1/T (K^−1) on the X axis of FIG. 1 based on the Arrhenius equation represented by the formula (1) below.

[3] = β cryptoxanthin stabilizing test, Example 1A (water from Citrus unshiu paste with additive L-ascorbic acid, stored at 40° C.); conditions: 0.002 parts by mass β cryptoxanthin (paste) in water
Description: The prepared paste derived from Citrus unshiu and water were mixed. Thus, a mixed solution was prepared. The mixing was conducted so that a mass ratio between β cryptoxanthin contained in the paste and the mixed water became 1 mg:50 g (0.002 parts by mass of β cryptoxanthin with respect to 100 parts by mass of finally obtained β cryptoxanthin-containing water). Vitamin C (L-ascorbic acid) was added to the mixed solution, which was then mixed by stirring. Thus, β cryptoxanthin-containing waters were prepared. The total amounts of L-ascorbic acid in the respective β cryptoxanthin-containing waters were set to 0.005, 0.01, 0.02, 0.05, 0.1, and 0.2 parts by mass with respect to 100 parts by mass of entire β cryptoxanthin-containing water by adding vitamin C. As a blank, a β cryptoxanthin-containing water was prepared in the same manner as described above except that vitamin C (L-ascorbic acid) was not added to the mixed solution. 50 g of six types of the β cryptoxanthin-containing waters and 50 g of the f3-cryptoxanthin-containing water as a blank were filled in the respective brown bottles. Thereafter, the brown bottles were subjected to a heat sterilization treatment under the condition at 90° C. for 30 minutes, which were then stored at 40° C. Sampling was conducted on a storage start date, after one month from the storage start date, and after two months from the same. The respective amounts of β cryptoxanthin in samples were measured by HPLC as shown below. Then, assuming that the amount of β cryptoxanthin on the storage start date was 100%, residual ratios of β cryptoxanthin were determined. The samples were treated at 70° C. for 30 minutes under alkaline conditions before being subjected to HPLC. By this treatment, β cryptoxanthin in the samples was saponified and was converted to a free form. After the treatment, the samples were subjected to a liquid-liquid extraction and were then concentrated. Thus, samples for HPLC were obtained. In the measurements of the amounts of β cryptoxanthin by HPLC, a HPLC system to which a column (J'sphere ODS-M80 (product name) with 250×4.6 mm I.D, produced by YMC Co., Ltd.) had been connected was used, and absorbances at 455 nm were measured by a UV detector ([…] (product name), produced by Hitachi Ltd.). Conditions of the column were as follows. • Mobile phase: acetonitrile/tetrahydrofuran (volume ratio: 95/5) containing 0.1% acetic acid and 50 ppm of α-tocopherol • Flow rate: 1.0 mL/minute • Column temperature: 55° C.

[4] = β cryptoxanthin stabilizing test, Example 2B (water from powder, varied β cryptoxanthin concentration, stored at 45° C.)
Description: as §1, with “powder” for “concentrated liquid”, “0.0005, 0.0010, 0.0022, 0.0031, 0.0060,” for “0.0007, 0.0015, 0.0025, 0.0053,”, “0.0079” for “0.0072”, “six” for “five”, “minutes. Six types of the β cryptoxanthin-containing waters of the example were stored at 45° C. for one month. Sampling was conducted on a storage start date and after one month from the storage start date. The respective amounts of β cryptoxanthin in samples were measured by HPLC in the same manner as in Example 1B. Then, assuming that the amount of β cryptoxanthin on the storage start date was 100%, residual ratios of β cryptoxanthin were determined.” for “minutes.”

[5] = additive L-ascorbic acid 0 parts by mass (blank)
[6] = additive L-ascorbic acid 0.005 parts by mass
[7] = additive L-ascorbic acid 0.01 parts by mass
[8] = additive L-ascorbic acid 0.02 parts by mass
[9] = additive L-ascorbic acid 0.05 parts by mass
[10] = additive L-ascorbic acid 0.1 parts by mass
[11] = additive L-ascorbic acid 0.2 parts by mass

For CC1=C(/C=C/C(C)=C/C=C/C(C)=C/C=C/C=C(C)/C=C/C=C(C)/C=C/C2=C(C)C[C@@H](O)CC2(C)C)C(C)(C)CCC1 [β cryptoxanthin], the “Residual ratio of β cryptoxanthin Storage for one month (%)” value (“Residual ratio … for one month (%)” for short) ([1]; β cryptoxanthin 0.0007 parts by mass (concentrated liquid) in water) was 42.6%, the “Residual ratio … for one month (%)” value ([1]; β cryptoxanthin 0.0015 parts by mass (concentrated liquid) in water) was 78.0% and the “Residual ratio … for one month (%)” value ([1]; β cryptoxanthin 0.0025 parts by mass (concentrated liquid) in water) was 95.8%. The “Residual ratio … for one month (%)” value ([1]; β cryptoxanthin 0.0053 parts by mass (concentrated liquid) in water) was 96.6%, the “Residual ratio … for one month (%)” value ([1]; β cryptoxanthin 0.0072 parts by mass (concentrated liquid) in water) was 100.8% and the “storage in a stable state at normal temperature” value ([2]; Example 4A, normal temperature (20° C. to 25° C.)) was “two years or more”. For the same compound, the “possible storage period in the stable state” value ([2]; 20° C.) was “about 34 months”, the “possible storage period in the stable state” value ([2]; 25° C.) was “about 16.2 months” and the “Residual ratio … for one month (%)” value [3, 5] was 76.9%. For the same compound, the “Residual ratio of β cryptoxanthin Storage for two months (%)” value (shortened to “Residual ratio … for two months (%)”) [3, 5] was 29.9%, the “Residual ratio … for one month (%)” value [3, 6] was 83.8% and the “Residual ratio … for two months (%)” value [3, 6] was 48.8%. The “Residual ratio … for one month (%)” value [3, 7] was 96.7%, the “Residual ratio … for two months (%)” value [3, 7] was 78.9% and the “Residual ratio … for one month (%)” value [3, 8] was 100%. The “Residual ratio … for two months (%)” value [3, 8] was 100%, the “Residual ratio … for one month (%)” value [3, 9] was 98.0% and the “Residual ratio … for two months (%)” value [3, 9] was 99.0%. For the same compound, the “Residual ratio … for one month (%)” value [3, 10] was 94.4%, the “Residual ratio … for two months (%)” value [3, 10] was 94.7% and the “Residual ratio … for one month (%)” value [3, 11] was 68.3%. For the same compound, the “Residual ratio … for two months (%)” value [3, 11] was 31.3%, the “Residual ratio … for one month (%)” value ([4]; β cryptoxanthin 0.0005 parts by mass (powder) in water) was 5.3% and the “Residual ratio … for one month (%)” value ([4]; β cryptoxanthin 0.0010 parts by mass (powder) in water) was 45.6%. The “Residual ratio … for one month (%)” value ([4]; β cryptoxanthin 0.0022 parts by mass (powder) in water) was 75.5%, the “Residual ratio … for one month (%)” value ([4]; β cryptoxanthin 0.0031 parts by mass (powder) in water) was 82.4% and the “Residual ratio … for one month (%)” value ([4]; β cryptoxanthin 0.0060 parts by mass (powder) in water) was 97.9%. The “Residual ratio … for one month (%)” value ([4]; β cryptoxanthin 0.0079 parts by mass (powder) in water) was 101.1%.
